Assay results taken from ChEMBL document CHEMBL1926613, “Bisubstrate analogue inhibitors of 6-hydroxymethyl-7,8-dihydropterin pyrophosphokinase: New design with improved properties” (Bioorg Med Chem, 2012).

How the values were obtained:
[1] = molecular target: T1, 2-amino-4-hydroxy-6-hydroxymethyldihydropteridine pyrophosphokinase (Escherichia coli (strain K12), UniProt P26281); experiment: Binding affinity to Escherichia coli HPPK using 6-hydroxymethyl-7,8-dihydropterin as substrate and ATP by fluorometric analysis
T1 sequence (P26281 whole entry): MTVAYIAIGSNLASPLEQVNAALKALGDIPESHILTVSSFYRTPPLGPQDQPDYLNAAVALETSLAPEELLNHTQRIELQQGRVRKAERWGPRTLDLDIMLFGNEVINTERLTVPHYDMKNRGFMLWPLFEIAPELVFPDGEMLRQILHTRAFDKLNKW

[2] = molecular target: T1, 2-amino-4-hydroxy-6-hydroxymethyldihydropteridine pyrophosphokinase; experiment: Inhibition of Escherichia coli HPPK using 6-hydroxymethyl-7,8-dihydropterin as substrate and [32P]-ATP

| Structure (SMILES) | Kd [1] [nM] | IC50 [2] [µM] |
| --- | --- | --- |
| Nc1nc2ncc(COP(=O)(O)OP(=O)(O)OP(=O)(O)OP(=O)(O)OC[C@H]3O[C@@H](n4cnc5c(N)ncnc54)[C@H](O)[C@@H]3O)nc2c(=O)[nH]1 | 470 | 0.44 |
| CC1(C)Nc2nc(N)[nH]c(=O)c2N=C1C(=O)NCCN1CCC(SC[C@H]2O[C@@H](n3cnc4c(N)ncnc43)[C@H](O)[C@@H]2O)CC1 | 2550 | 3.16 |
| Nc1nc2ncc(CNCCN3CCC(SC[C@H]4O[C@@H](n5cnc6c(N)ncnc65)[C@H](O)[C@@H]4O)CC3)nc2c(=O)[nH]1 | > 150000 | > 100 |
